Test: Inhibition of Flt3 in human MV411 cells assessed as assessed as proliferation after 72 hrs incubation by spectrophotometry

EC50: 327 nM
Compound: c1cn2cc(-c3ccc4cn[nH]c4c3)nc(Nc3ccc(N4CCOCC4)cc3)c2n1
